Source: patent US6180385A (priority 1996, dated 2001)

Molecular target: Lb proteinase (Foot-and-mouth disease virus serotype O, UniProt P03305)
Sequence (P03305 29-201 limits assumed): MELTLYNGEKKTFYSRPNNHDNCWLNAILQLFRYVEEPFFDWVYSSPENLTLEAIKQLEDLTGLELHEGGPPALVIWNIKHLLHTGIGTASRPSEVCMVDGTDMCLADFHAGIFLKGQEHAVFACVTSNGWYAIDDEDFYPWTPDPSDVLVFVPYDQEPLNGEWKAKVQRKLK

**Q.** How did the “FMDV Lb cleavage site on the peptide (* indicates cleavage site)” value turn out when AKVQRKLKGAGQSSPA [LVP4-1] was run?
**A.** K*G

**Q.** What about the “cleavage of peptide in the absence of SDS (controls)” value of the same sequence?
**A.** complete cleavage

**Q.** What about the “peptide cleaved by Lb (qualitative)” value of the same sequence?
**A.** cleaved

**Q.** And the “cleavage of peptide by Lb after 4 min” value (lb proteinase, 4 min, 100 µM, pH 8)?
**A.** more than 80%

**Q.** And the “cleavage of peptide by Lb after 8 min” value (lb proteinase, 8 min, 100 µM, pH 8)?
**A.** about 90%
